Test results as given in patent US11801242B2, “Compositions and methods for adjuvant cancer therapeutics” (DUKE UNIVERSITY, priority 2018, dated 2023).

Columns and labels:
KP cells = test: CellTiter-Glo Luminescence cell viability assay; type: cell-based, mouse
Description: Relative viability of cells in response to RE01 and DNA-damaging agents was assessed by the CellTiter-Glo Luminescence cell viability assay (Promega) that determines the number of viable cells based on the relative amount of ATP in the culture, which is directly proportional to the number of metabolically active cells. Briefly, 10,000 cells were plated in each well of a 96-well, white, clear flat bottom plate (Corning). Increasing doses of drugs in various combinations-RE01 alone or in combination with DNA-damaging agents-were added into the plates after 24 hours. The RE01 compound was dissolved in 0.1% DMSO and other drugs were dissolved in solvents ascribed by the manufacturer. In all cases, DMSO controls were run in parallel to the drug treatments. Cells were treated with DMSO or cisplatin (0.5 uM) for 24 hours, followed by RE01 (1.5 uM) treatment for additional 24 hours. Cells were washed and allowed to form colonies for 5-7 days and counted after staining with Coomassie brilliant blue R-250 stain. The relative viability of cells was monitored after 24 hours of drug treatment by adding CellTiter-Glo Luminescence stain to an equilibrated plate per the manufacturer's instructions. Luminescence was measured on the plate reader (Tecan Spark 10M). Relative luminescence, which is indicative of relative survival of metabolically active cells, was calculated by dividing the luminescence of treated samples with DMSO controls.
Viabilities of HT1080 (human fibrosarcoma), A375 (human melanoma), LNCap (human prostate adenocarcinoma), KP (mouse Kras^G12D;p53^−/− lung adenocarcinoma), and AG01522 (human primary fibroblasts) cells were assessed by the Promega CellTiter-Glo Luminescence cell viability assay. Relative luminescence intensities to samples treated with 0 μM RE01 (panel A) or with 0 μM DNA-damaging agents (panels B and C) are plotted. Blue lines represent single agent treatments, and orange lines represent RE01 combination treatments. […]

Rev1^−/− MEF cells = test: Clonogenic survival assay; type: cell-based, mouse
Description: 300 cells were plated in triplicate in 6-well plates for 24 hours. Cisplatin (cis-diammineplatinum(II) dichloride, Sigma-Aldrich) was added to relevant wells for 24 hours. All plates were incubated at 37° C. for 24 hours. Media were changed the next day and in fresh media RE01 (at 1.5 μM concentration) was added to untreated or cisplatin-treated cells for another 24 hours. Media were changed at the end of these combination treatments, and cells were allowed to recover for 7 days. To stain the resulting colonies, media were aspirated and the fixative (50% methanol and 10% glacial acetic acid) was added for 10 minutes, followed by the addition of 0.02% Coomassie brilliant blue R-250 stain (ThermoFisher) in methanol: acetic acid: water in a ratio of 46.5:7:46.5 (v/v/v). Colonies that stained blue and contained at least 40 cells were counted. Relative cell survival or colony formation was calculated by dividing colony counts from treated samples by the DMSO or untreated controls.
REV1 was knocked down by transiently transfecting SMARTpool: ON-TARGETplus REV1 siRNA by nucleofection. The siRNA was mixed with the nucleofection buffer Mouse/Rat Hepatocyte Nucleofector™ Kit (Lonza) and electroporated using the Nucleofector™ 2b device. Full-length mouse Rev1 on the pC3 plasmid (Clontech) was nucleofected using the same buffers and device into Rev1^−/− cells to complement the REV1 function.

HT1080 cells = test: Gapped plasmid TLS assay, cisplatin 1,2-GG lesion; type: cell-based, human; conditions: pre-treatment with RE01 1.5, 3.0 and 15.0 μM for 24 hours
Source text: The double stranded plasmid pUC19 with ampicillin resistance was modified to include the oligonucleotide containing cisplatin 1,2-GG lesion on one strand and a gapped region across it. Briefly, the 16mer cisplatin-containing oligonucleotide was flanked by two 21mer regular DNA strands (5′-[…]-3′ (SEQ ID NO: 2) on the 5′ end and 5′-[…]-3′ (SEQ ID NO: 3) on the 3′ end) and elongated to a 58mer lesion-containing single strand DNA. After linearizing the plasmid by restriction endonucleases BstAPI and BspQI (New England Biolabs), the 58mer oligonucleotide was mixed with two scaffolds (5′-TGCATGCGCGCTACGACG-3′ (SEQ ID NO: 4) and 5′-[…]-3′ (SEQ ID NO: 5)) and ligated with the linear pUC19 plasmid to build up a circular plasmid containing a site-specific cisplatin 1,2-GG lesion and a 16-nucleotide gap on the opposite strand.
A competitor gapped plasmid that was three bases longer (started from a 19mer oligonucleotide 5′-CTCTCTAGGCTCACTTCTA-3′ (SEQ ID NO: 6)) than the lesion-containing plasmid was used as the internal control. The cells were pre-treated with either DMSO or RE01 (1.5, 3.0 and 15.0 μM) for 24 hours. […] The gap-filling efficiency by TLS was calculated by dividing the output ratio obtained from HPLC-MS with the input ratio (4:1) and the results were normalized to 100%.

CC(C)CC(=O)c1c(Nc2ccc(Cl)cc2Cl)[nH]c2c(Cl)ccc([N+](=O)[O-])c2c1=O [RE01, 8-chloro-2-((2,4-dichlorophenyl)amino)-3-(3-methylbutanoyl)-5-nitroquinolin-4(1H)-one]
sensitization to DNA-damaging agent (KP cells; RE01 1.5 μM with 4-nitroquinolone 1-oxide (4-NQO)): sensitized | sensitization to DNA-damaging agent (KP cells; RE01 1.5 μM with benzo[a]pyrene diol epoxide (BPDE)): sensitized | sensitization to DNA-damaging agent (KP cells; RE01 1.5 μM with methyl methanesulfonate (MMS)): sensitized | colony forming ability (Rev1^−/− MEF cells; RE01 1.5 μM + cisplatin 0.5 μM vs cisplatin alone): but not in Rev1^−/− MEF cells | RE01 mediated sensitization to cisplatin (Rev1^−/− MEF cells; cells complemented with plasmid encoding REV1, RE01 1.5 μM, cisplatin 1 μM): fully restored | bypass efficiency of 1,2-GG cisplatin DNA adduct (HT1080 cells): suppresses
